Assay results taken from patent US8338423B2, “Compositions for the treatment of hyperphenylalaninemia” (Universidad de Zaragoza, priority 2007, dated 2012).

Molecular target: T1, wt-PAH (Homo sapiens, UniProt P00439)
T1 construct: made in house; host or cells: E. coli
T1 sequence (P00439 1-452): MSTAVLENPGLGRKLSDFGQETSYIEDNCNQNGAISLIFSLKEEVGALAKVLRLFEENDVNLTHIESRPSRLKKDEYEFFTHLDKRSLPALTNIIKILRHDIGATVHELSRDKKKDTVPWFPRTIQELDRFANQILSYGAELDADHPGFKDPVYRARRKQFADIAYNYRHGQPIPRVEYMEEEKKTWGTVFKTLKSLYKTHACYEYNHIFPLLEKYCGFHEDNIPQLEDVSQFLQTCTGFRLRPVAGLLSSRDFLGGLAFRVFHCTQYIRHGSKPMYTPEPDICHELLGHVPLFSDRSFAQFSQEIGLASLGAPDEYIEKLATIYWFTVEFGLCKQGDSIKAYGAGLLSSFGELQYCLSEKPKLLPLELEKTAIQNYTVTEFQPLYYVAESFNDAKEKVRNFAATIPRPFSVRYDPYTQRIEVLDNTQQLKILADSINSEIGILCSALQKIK
Assay: Enzyme kinetic analysis of recombinant PAH activity
Format: biochemical
Settings: for reduction in Vmax (activity dependence on L-Phe) / inhibition of PAH activity / increase of Km for BH4 / S0.5, L-Phe / Vmax, L-Phe / h (Hill coefficient), L-Phe / Vmax, BH4, No preincubation / Vmax, BH4, Preincubation: 100 μM compound; for reduction in Vmax (activity dependence on L-Phe): 75 μM BH4; for inhibition of PAH activity: 100 μM L-Phe, 10 μM BH4, L-Phe preincubation (FIG. 3A); for increase of Km for BH4: preincubation with 1 mM L-Phe; for S0.5, L-Phe / Vmax, L-Phe / h (Hill coefficient), L-Phe: 75 μM BH4, L-Phe 0-1 mM, preincubated; for S0.5, L-Phe / Vmax, L-Phe / h (Hill coefficient), L-Phe / Vmax, BH4, No preincubation / Vmax, BH4, Preincubation: mean ± S.E.; for Vmax, BH4, No preincubation / Vmax, BH4, Preincubation: 1 mM L-Phe, BH4 0-200 μM; for Vmax, BH4, No preincubation: not preincubated; for Vmax, BH4, Preincubation: preincubated with L-Phe; for Ki: using standard equations for competitive inhibition, read-out: Kl vs BH4 (competitive inhibition)
Procedure: PAH activity was measured at 25° C. for 1 min essentially as described (BjØrgo E, et al., Eur. J. Biochem. 1988; 257(1):1-10). Tetrameric hPAH (1-2 μg) was incubated in 20 mM Hepes 0.2 M NaCl pH 7.0, containing catalase (0.04 mg/ml), 0.1-1 mM L-Phe, DMSO 2.5% and 0-100 μM of each compound. After 4 min incubation at 25° C., ferrous ammonium sulphate (100 μM) was added, and the reaction was triggered after 1 min by adding BH4 (10-200 μM) in the presence of 5 mM DTT. In some experiments, the preincubation step with L-Phe was omitted and L-Phe was added together with BH4 to analyze the L-Phe induced activation of the enzyme. To determine the kinetic parameters for BH4 and L-Phe, BH4 was used at 0-200 μM (at fixed 1 mM L-Phe) and L-Phe at 0-1 mM (BH4 was fixed at 75 μM). L-Tyr formed was quantified by HPLC and fluorimetric detection (DØskeland A P, et al., J. Biol. Chem. 1984; 259:11242-11248). The saturation curves were fitted to hyperbolic (for BH4) or sigmoidal (for L-Phe) kinetic models by using Sigma Plot v.9.0 (SPSS Inc).
PAH enzyme kinetics have been analyzed in the presence of the four hit compounds in order to know if ligand binding interferes with PAH catalytic activity. Activity measurements were performed in the presence of high (100 μM) concentrations of ligands with or without preincubating PAH enzyme with L-Phe prior to activity assays. L-Phe preincubation of human PAH lead to activation of the enzyme and manifestation of positive cooperativity by the substrate, and it is thought to play an important regulatory role on PAH activity in vivo (Pey A L, et al., In: Blau N. ed. Advances in PKU and BH4, 2006). […] It is worth noting that under these conditions, ligand concentration equalled L-Phe concentration (100 μM), and 10-fold exceeded BH4 concentration (10 μM). Except for compound 13, this inhibition was dramatically weakened when the preincubation step with L-Phe (100 μM) was ommited. Moreover, when L-Phe and BH4 are used at saturating concentrations, inhibition was abolished (FIG. 3B), indicating a rather weak and reversible inhibitory effect exerted by these ligands.
Further kinetic analyses were performed to determine if the weak inhibition was due to competition for the substrate and/or cofactor binding sites. Activity dependence on BH4 and L-Phe concentration was measured in the presence of 100 μM compound concentration, and the experimental data fitted to hyperbolic (BH4) or sigmoidal (L-Phe) kinetic models. The fitting parameters obtained from these experiments are compiled in Table 2. […] These values are substantially higher than those obtained for likely physiological inhibitors of PAH, such as 7S-BH4 and BH2 (Kl˜2-5 μM and ˜17 μM, respectively).

Row | Structure (SMILES) | reduction in Vmax (activity dependence on L-Phe) | inhibition of PAH activity | increase of Km for BH4 | S0.5, L-Phe | Vmax, L-Phe | h (Hill coefficient), L-Phe | Vmax, BH4, No preincubation | Vmax, BH4, Preincubation | Ki
1 | Cc1onc(-c2ccccc2)c1-c1n[nH]c(N)c1C#N [Compound 5, 5-amino-3-(5-methyl-3-phenyl-4-isoxazolyl)-1H-pyrazole-4-carbonitrile] | about 13% | specially significant | ~20% | 118 ± 5 µM | 3.02 ± 0.08 μmol L-Tyr/min·mg | 2.6 ± 0.3 | 0.80 ± 0.05 μmol L-Tyr/min·mg | 3.52 ± 0.41 μmol L-Tyr/min·mg | ~500 µM
2 | Cn1cnc([N+](=O)[O-])c1N1CCN(C(c2ccccc2)c2ccccc2)CC1 [Compound 6, 1-benzhydryl-4-(1-methyl-4-nitro-1H-imidazol-5-yl)piperazine] | – | – | – | 156 ± 10 µM | 3.77 ± 0.13 μmol L-Tyr/min·mg | 1.8 ± 0.1 | 0.81 ± 0.05 μmol L-Tyr/min·mg | 2.96 ± 0.10 μmol L-Tyr/min·mg | –
3 | Nc1c(-c2ccc3ccccc3n2)c2ccc([N+](=O)[O-])cc2c(=O)n1Cc1ccccc1 [Compound 11, 3-amino-2-benzyl-7-nitro-4-(2-quinolyl)-1,2-dihydroisoquinolin-1-one] | – | – | – | 138 ± 8 µM | 3.57 ± 0.11 μmol L-Tyr/min·mg | 1.9 ± 0.2 | 0.86 ± 0.03 μmol L-Tyr/min·mg | 2.87 ± 0.14 μmol L-Tyr/min·mg | –
4 | Cc1ccnc(-n2c(=S)[nH]c3sc(C)c(C)c3c2=O)c1 [Compound 13, 5,6-dimethyl-3-(4-methyl-2-pyridinyl)-2-thioxo-2,3 dihydrothieno[2,3-d]pyrimidin-4(1H)-one] | ~30% | specially significant | ~50% | 131 ± 11 µM | 2.43 ± 0.10 μmol L-Tyr/min·mg | 1.6 ± 0.2 | 0.85 ± 0.07 μmol L-Tyr/min·mg | 3.11 ± 0.16 μmol L-Tyr/min·mg | ~200 µM
